According to US11033562B2, “Carbohydrate derivatives used for surface modification of immune cells, use thereof and method thereof” (Xiamen Nuokangde Biological Technology Co., Ltd., priority 2018, dated 2021):

Tested on: CD22-fc
Experiment: Analysis of CD22 ligand on surfaces of NK-92 cells (CD22-fc binding, flow cytometry and confocal)
Assay type: cell-based
Conditions: NK-92 cells incubated with the sialic acid derivative; FIGS. 7A and 7B
Procedure: Culturing ATCC (American Type Culture Collection)-derived NK-92 (ATCC® CRL2407™) cells (also known as NK-92 cell lines) on a fourth alpha-MEM growth medium (comprising 12.5% (v/v) newborn bovine serum, 12.5% (v/v) horse serum, 100 U/ml recombinant IL-2) in an incubator with 5% (v/v) CO2 atmosphere at 37° C., then replacing the fourth alpha-MEM growth medium with a fifth alpha-MEM growth medium (comprising 2 mMPB-sia), continuing to culture for 48 hours, and washing for three times to obtain MPB-sia modified NK-92 cells, which is referred to as MsNK-92 cells.
Washing MPB-sia or BPC-sia modified NK-92 cells with PBS buffer for three times, adding 100 μL, PBS, adding 1 μg CD22-fc to obtain a first mixture, then culturing the first mixture on ice for 30 minutes, washing three times with PBS buffer, then adding anti-CD22-PE to obtain a second mixture, culturing the second mixture on ice for 30 minutes, washing three times, then collecting cells, quantifying the extent of CD22 binding by flow cytometry analysis, and imaging by confocal microscopy.
Increasing the concentration of MPB-sia enhanced the levels of CD22 ligand expression on cell surfaces reaching a maximum at 4 mM of MPB-sia at 24 hours (FIG. 8A). […] Next, the persistence of CD22 ligands on engineered NK-92 cells was analyzed. […]

With CC(=O)N[C@H]1[C@H]([C@H](O)[C@H](O)CO)OC(O)(C(=O)O)C[C@@H]1O (stereo partly shown) [sialic acid (sia), sialic acid (N-acetylneuraminic acid)] the “CD22 binding to NK-92 cells (flow cytometry)” value was “little binding with CD22 over the background”.
